Measurements reported in ChEMBL document CHEMBL3507680, “University of Dundee, Gates Library screen for HepG2 cell viability”.

experiment: Human HepG2 cell viability assay in 384 well format; type: toxicity, cell-based; design: dose 125 nL, time 70.5 hour; cytotoxicity at 70.5 h: concentration not given beside the values; conditions: HepG2 cells, read-out: Inhibition

SMILES | cytotoxicity at 70.5 h
CCC(CO)N(Cc1cccs1)C(=O)CSC (centres undefined) | 11.9%
Cc1nc(CN(C)C2CCN(Cc3ccc(C(N)=O)cc3)C2)no1 (centres undefined) | -11.2%
CSc1nccc(N2CCC3(CCCN(CC4CC4)C3)C2)n1 (centres undefined) | -3.08%
O=C(c1ccc(Cl)o1)N1CCCC(c2cc(C(F)(F)F)[nH]n2)C1 (centres undefined) | -3.16%
COc1ccc(CC(=O)NCCn2nc3ccccn3c2=O)cc1 | 12.9%
O=C(CCCNC(=O)Nc1ccc(F)cc1F)Nc1cn[nH]c1 | -5.08%
Cc1n[nH]cc1CNCC(c1ccsc1)N(C)C (centres undefined) | -7.79%
COC(=O)c1cc(C2CC2)nc2c(Cl)cnn12 | 24.9%
CNc1cc(N2CCCC2CNCc2cnc(C)cn2)ncn1 (centres undefined) | -8.09%
O=C(c1ccc(CN2CCCC2)cc1)N1CCCC(n2cccn2)C1 (centres undefined) | -5.06%
c1cncc(COCC2CN(Cc3ccsc3)Cc3ccnn3C2)c1 (centres undefined) | -4.42%
CN(Cc1ccccn1)C(=O)c1nc(S(C)(=O)=O)n2ccccc12 | 1.32%
Cc1nc2cc(F)cc(C(=O)N3CCN(CC(C)O)CC3)c2nc1C (centres undefined) | -9.3%
Cc1cccc(C(=O)N2C[C@@H]3OCCN(C(C)C)[C@@H]3C2)n1 | -0.427%
CC(C)CNC(=O)c1cc(Br)c2c(c1)OCCO2 | -7.77%
OC1(Cn2ccc3ncccc32)CCN(Cc2ccccn2)CC1 | 24.4%
COc1ccc(C(CNC(=O)c2c(C)noc2C)N(C)C)cc1 (centres undefined) | 21.1%
CN(C)C(CNS(=O)(=O)c1cc(F)ccc1F)c1cccn1C (centres undefined) | -11.3%
CNc1ncc(CN(C)c2nc(C3CCCC3)nc3c2cnn3C)cn1 | 6.56%
CC(NC(=O)Cn1ccc(=O)n(C)c1=O)c1ccccc1F (centres undefined) | -5.75%
c1cncc(OCCCNC2COc3ccccc3C2)c1 (centres undefined) | -3.91%
CC(c1ccccc1F)N1CCN(C(=O)Cc2ccncc2)CC1 (centres undefined) | -11.8%
CN(C)C(=O)N1CC2(CCNCC2)c2cc(Cl)ccc21 | 24.1%

SMILES | cytotoxicity at 70.5 h
Cc1cc(C)n(CC(=O)N2CCC(c3nc(C(C)C)no3)CC2)n1 | -7.07%
Cn1cc(C2CN(C(=O)Cc3coc(-c4ccccc4)n3)CCO2)cn1 (centres undefined) | 4.27%
Cc1nc(CNC(C(=O)N2CCOCC2)C(C)C)no1 (centres undefined) | -6.16%
CC(C)c1nccc([C@H]2C[C@@H]3CCN(Cc4ccco4)C[C@H]3O2)n1 | -9.27%
Cc1ccccc1CC(=O)N(C)CC1(O)CCCN(c2ccccn2)C1 (centres undefined) | -5.53%
Cc1ccc(CN2C[C@@H]3CN(CC4CCOCC4)CCO[C@@H]3C2)s1 | 8.99%
Cc1c[nH]nc1C1CCCN(C(=O)c2c(C)noc2C)C1 (centres undefined) | -1.16%
COc1ccc2nc(C3CC3)cc(C(=O)NCc3noc(C)n3)c2c1 | -1.37%
O=C(COCC(=O)N(c1ccccc1)c1ccccc1)N1CCCCC1 | 19.2%
NC1(c2nc(-c3ccccc3)cc(=O)[nH]2)CCCCC1 | -10.8%
Cc1nc(C)c(C(C)NCc2c(C(C)C)nn(C)c2N(C)C)s1 (centres undefined) | -0.665%
CN(C)C(=O)Cn1cc(C#N)c(=O)c2cc(Br)ccc21 | 1.29%
Cc1ccc([C@@H]2CN(C(=O)c3cc[nH]c3)C[C@H]2NC(=O)C2CC2)cc1 | -10.7%
CCOc1ccc(S(=O)(=O)NCc2cccnc2N(C)C)cc1 | 52.9%
C[C@@H]1CN(C(=O)c2ccc(=O)[nH]c2)CC[C@@]1(O)C1CCOCC1 | 1.36%
CCNC(=O)Cn1ncc(N(C)CCc2ccccc2)cc1=O | 8.48%
O=C(c1ccc(C2CCCO2)s1)N1CCN(c2ccccc2F)CC1 (centres undefined) | -4.35%
N#Cc1cccc(Cl)c1NC1CCN(CC(N)=O)CC1 | -106%
CN(C)CC(=O)N1CCc2ncnc(-c3ccsc3)c2CC1 | -0.46%
CC(C)N1CCOC(CC(=O)N2CC(c3ccncc3)C2)C1 (centres undefined) | -2.68%
CCNc1cc2c(nn1)CCN(C(=O)c1cccc(CSC)c1)C2 | -3.17%
CC(=O)N1CCC(Oc2ccc(Cl)cn2)CC1 | 0.563%
Cc1noc(Cl)c1CCC(=O)N1CCC(CC(N)=O)CC1 | -4.77%

SMILES | cytotoxicity at 70.5 h
CN(C)c1cc(CNC(=O)c2n[nH]c(=O)c3ccccc23)ccn1 | 12.8%
COCCN1CC(C(=O)N(C)Cc2csc(C)n2)CC1=O (centres undefined) | 9.18%
CNC(=O)C(NC(=O)CCc1cccc(OC2CCCC2)c1)C(C)C (centres undefined) | 6.19%
Cc1cnc(C)c(N2CCC(c3nccn3Cc3cscn3)CC2)n1 | 14.9%
CCc1noc(CCCC(=O)Nc2cc(C(F)(F)F)c[nH]c2=O)n1 | 0.169%
NC(=O)CCSCc1cc(Br)cc2cccnc12 | 10.9%
Cc1ccccc1OCCC(=O)OC(C)C(=O)Nc1sccc1C(N)=O (centres undefined) | -7.64%
CN(Cc1cc(C(C)(C)C)n[nH]1)Cc1c[nH]nc1-c1ccc(F)cc1 | -4.87%
Cc1ccccc1CCC1CCCN(C(=O)Cc2cc(=O)[nH]c(N)n2)C1 (centres undefined) | 10.8%
CN(C)CCN1CC2(CCN(C(=O)c3cnccn3)CC2)OC1=O | -2.71%
O=C(NCC1OCCc2cn(CC3CC3)nc21)c1ccsc1 (centres undefined) | 47.4%
CN1CCN(C(=O)c2ccc(=O)n(C)c2)Cc2ccccc21 | -2.39%
CCS(=O)(=O)N1Cc2c(Cn3cccc3)nn(C(C)C)c2C1 | -2.77%
O=C(CC1COCCN1)NCCc1nc(Cc2ccccc2)no1 (centres undefined) | -15.5%
CC(=O)N(Cc1ncc(C(C)C)o1)C1CCN(CCn2cccn2)C1 (centres undefined) | 4.58%
CS(=O)(=O)N1CCC(C(=O)Nc2nnc(C(F)(F)F)[nH]2)CC1 | -6.85%
O=C(c1coc2ccccc12)N1CCCC(O)(CO)CC1 (centres undefined) | -7.66%
CCCc1cc(C(=O)N2CCCC2c2cccnc2)[nH]n1 (centres undefined) | -5.97%
Cc1nc(CN2CCOC3(CCCC3)C2)no1 | -5.91%
COc1ccccc1CN(Cc1nc(Cc2ccccc2)no1)C1CC1 | -10.7%
COc1cccc2cc(CNC(=O)N3CCS(=O)(=O)CC3)oc12 | 12.1%
Cc1cccc(NC(=O)c2sccc2C)n1 | 36.7%
Cn1nccc1C(=O)N1CCCN(CCCc2ccccc2)CC1 | -0.514%

SMILES | cytotoxicity at 70.5 h
CCOCCN1CCN(Cc2nnc(-c3occc3C)o2)CC1CC (centres undefined) | -5.31%
Cn1ccnc1C(=O)N1CCOC(Cc2ccc(Cl)cc2)C1 (centres undefined) | -8.65%
O=C(Nc1cc(F)ccc1OCC1CCCO1)c1ccccn1 (centres undefined) | -8.61%
CN1CCCC(c2cccc(-c3cccc(Cl)c3)n2)C1 (centres undefined) | 18%
Cc1nn(C)cc1C(=O)N1CCC(C(=O)c2nc3ccccc3s2)CC1 | -4.17%
CC(C)n1ccnc1CNC(=O)c1cccc(CCC(C)(C)O)c1 | -10.5%
O=C(C1CCCO1)N1CCC(n2cc(-c3ccsc3)nn2)CC1 (centres undefined) | -13.3%
CSCc1noc(CN2CC3(CCCC3)CC2=O)n1 | -7.21%
CCC(=O)N1CCC(Cc2cc(Nc3ncccn3)ncn2)CC1 | -4.23%
CC(=O)NCCCSC1CCCN(c2ccccc2Cl)C1=O (centres undefined) | -15.3%
CCC(Nc1nnnn1-c1ccccc1)C(=O)NCc1ccsc1 (centres undefined) | -12.5%
Cn1ccc(C(=O)NCc2ccc(N3CCCCC3)nc2)cc1=O | 18.6%
COCc1nnc(C(=O)N2CCC(N3CCCCC3)CC2)o1 | 16.4%
CCN1CCOC(CNCc2ccc(OCc3ccccn3)cc2)C1 (centres undefined) | -6.17%
Cn1cnc(S(=O)(=O)N2C[C@H]3CN(Cc4cccnc4)C[C@H]3C2)c1 | 1.66%
Cc1cc(N2CC[C@H](O)C2)n2nc(C)c(C)c2n1 | -1.97%
N#Cc1c(N)nc2c(c1-c1c[nH]nc1C1CCCCC1)CC(N)CC2 (centres undefined) | 22.4%
COCc1ccc(C(=O)N2CCCN(Cc3ccc(F)cc3)CC2)s1 | 30.1%
CN(C)C(=O)CNS(=O)(=O)c1cc(Br)ccc1F | 2.64%
COCCC(=O)N1CCN(CC(C)C)c2nc(C)ccc2C1 | -4%
CNC(=O)c1cc2c(nc1NCC1CC1)CCN(S(=O)(=O)C1CC1)CC2 | 2.84%
Cc1ccc(N2CCCC(NCc3ccc(Cl)o3)C2)nn1 (centres undefined) | -1.97%
Cc1ccc(CN2Cc3nccn3CC(Cn3cncn3)C2)s1 (centres undefined) | -1.32%

SMILES | cytotoxicity at 70.5 h
CCc1cc(OC)c(OC)cc1C(=O)Nc1cccnc1 | 13%
COc1ccc2c(c1)OCC(CNC(=O)c1cc(C(C)C)on1)C2 (centres undefined) | -20.5%
COCCN1CCN(C(=O)NC2CC2)Cc2ccc(C)nc21 | -12.1%
Cc1ccc(-n2nnc(C(=O)NCC3CCCCC3)n2)cc1 | -7.05%
CCN1CCNC(=O)C12CCN(C(=O)Cc1ccsc1)CC2 | 2.23%
CC(=O)NCC1CCCN(Cc2nc(Cc3ccccc3F)no2)C1 (centres undefined) | 0.817%
CCc1ncc2c(n1)CN(C(=O)c1c(C)[nH]c(C(C)=O)c1C)C2 | -9.15%
Cc1cn[nH]c1C1CCCCN1C(=O)CCc1c(C)n[nH]c1C (centres undefined) | -2.55%
Cc1cccc(CN2C[C@@H]3CN(C(=O)C4CCOC4)C[C@@H]3C2=O)c1 (some centres undefined) | 2.05%
O=C(c1ccn(-c2ccccc2Cl)n1)N1CCCSCC1 | -3.62%
CCc1noc(C(C)N2CCN(Cc3nc(C)c(C)o3)CC2)n1 (centres undefined) | 23.9%
Cn1cc(CC(CNC(=O)Nc2cccc(Cl)c2)C(N)=O)cn1 (centres undefined) | -6.01%
CNC(=O)CN1CC[C@H]2CN(C(=O)c3ccc(C)nc3)C[C@H]2C1 | -1.44%
c1ccc2c(Cc3nnc([C@H]4CCN(CC5CC5)C4)o3)c[nH]c2c1 | -0.383%
CC(C)(O)CN1CCN(C(=O)c2cccn2Cc2cccnc2)CC1 | -8.17%
Cc1cnn(CC2CCCCN2C(=O)c2ccccc2-n2cccn2)c1 (centres undefined) | -17.3%
COc1ccc(C)c(NC(=O)NCc2cccc(N(C)C)n2)c1 | -6.19%
CN1CCC(CCNC(=O)N2CCN(Cc3ccon3)CC2)CC1 | 14.9%
O=C(NCc1nnc2n1CCCC2)c1cn(-c2ccccc2)nn1 | -4.64%
NC(=O)c1cccc(OCCC(=O)NC2CCc3c(F)cccc32)c1 (centres undefined) | -9.97%
Cc1ccc(C(=O)NCCS(=O)(=O)Cc2ccccc2)c(C)c1 | 1.96%
CNC(=O)C1Cn2ccnc2C2(CCN(C(=O)CC3CCCC3)CC2)O1 (centres undefined) | -1.06%
